Measured values published in publication PMC6597265 (ACS chemical neuroscience, 2019).
Read-outs that look alike come from different tables or passages of the source.

Tests used:
native KA receptors [1] = test: Binding affinity at native KA receptors, [3H]-KA, rat cortical synaptosomes; conditions: native iGluRs; for IC50 KA: mean of at least three experiments
human EAAT3 = biological target: T1, human EAAT3 (Homo sapiens, UniProt P43005); test: [3H]-D-Asp uptake assay, EAAT3 stably expressed in HEK293 cells; type: cell-based
T1 sequence (P43005 1-524): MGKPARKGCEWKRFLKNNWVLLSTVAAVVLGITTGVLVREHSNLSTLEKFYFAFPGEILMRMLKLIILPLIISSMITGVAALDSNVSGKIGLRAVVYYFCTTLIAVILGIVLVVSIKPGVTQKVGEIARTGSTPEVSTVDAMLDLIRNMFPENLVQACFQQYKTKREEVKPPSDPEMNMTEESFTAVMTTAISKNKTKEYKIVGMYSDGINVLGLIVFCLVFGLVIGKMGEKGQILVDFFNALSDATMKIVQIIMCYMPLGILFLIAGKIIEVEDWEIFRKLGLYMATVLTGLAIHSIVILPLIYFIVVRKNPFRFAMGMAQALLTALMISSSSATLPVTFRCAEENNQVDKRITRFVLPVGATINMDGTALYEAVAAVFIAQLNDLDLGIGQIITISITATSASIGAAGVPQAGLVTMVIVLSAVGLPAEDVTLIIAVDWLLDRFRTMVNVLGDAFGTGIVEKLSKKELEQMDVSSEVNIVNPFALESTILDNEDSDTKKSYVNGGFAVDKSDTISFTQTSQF

[2] = biological target: recombinant rat homomeric GluK3 (Rattus norvegicus, UniProt P42264); test: Binding affinity at cloned homomeric GluK3 expressed in sf9 cells, [3H]-KA; conditions: for GluK1/K3 (GluK1/GluK3 Ki selectivity ratio): ratio of Ki values at cloned homomeric receptors
human EAAT1 = human EAAT1 (Homo sapiens, UniProt P43003); test: [3H]-D-Asp uptake assay, EAAT1 stably expressed in HEK293 cells; type: cell-based
human EAAT2 = human EAAT2 (Homo sapiens, UniProt P43004); test: [3H]-D-Asp uptake assay, EAAT2 stably expressed in HEK293 cells; type: cell-based
[3] = biological target: recombinant rat homomeric GluK1 (Rattus norvegicus, UniProt P22756); test: Binding affinity at cloned homomeric GluK1 expressed in sf9 cells, [3H]-NF608
[4] = biological target: recombinant rat homomeric GluK2 (Rattus norvegicus, UniProt P42260); test: Binding affinity at cloned homomeric GluK2 expressed in sf9 cells, [3H]-KA
native NMDA receptors [5] = type: binding; conditions: native iGluRs, rat synaptosomes
native AMPA receptors [6] = test: Binding affinity at native AMPA receptors, [3H]-AMPA, rat cortical synaptosomes; conditions: native iGluRs
native AMPA receptors [7] = conditions: read-out: IC50 AMPA, cited from earlier work
native NMDA receptors [8] = conditions: read-out: Ki NMDA, cited from earlier work
native KA receptors [9] = conditions: cited from earlier work
[10] = Ki GluK3, cloned homomeric receptor, mean ± SEM, at least three experiments
[11] = IC50 EAAT1, HEK293 cells, [3H]-D-Asp uptake

recombinant rat homomeric GluK1, sequence (P22756 31-949): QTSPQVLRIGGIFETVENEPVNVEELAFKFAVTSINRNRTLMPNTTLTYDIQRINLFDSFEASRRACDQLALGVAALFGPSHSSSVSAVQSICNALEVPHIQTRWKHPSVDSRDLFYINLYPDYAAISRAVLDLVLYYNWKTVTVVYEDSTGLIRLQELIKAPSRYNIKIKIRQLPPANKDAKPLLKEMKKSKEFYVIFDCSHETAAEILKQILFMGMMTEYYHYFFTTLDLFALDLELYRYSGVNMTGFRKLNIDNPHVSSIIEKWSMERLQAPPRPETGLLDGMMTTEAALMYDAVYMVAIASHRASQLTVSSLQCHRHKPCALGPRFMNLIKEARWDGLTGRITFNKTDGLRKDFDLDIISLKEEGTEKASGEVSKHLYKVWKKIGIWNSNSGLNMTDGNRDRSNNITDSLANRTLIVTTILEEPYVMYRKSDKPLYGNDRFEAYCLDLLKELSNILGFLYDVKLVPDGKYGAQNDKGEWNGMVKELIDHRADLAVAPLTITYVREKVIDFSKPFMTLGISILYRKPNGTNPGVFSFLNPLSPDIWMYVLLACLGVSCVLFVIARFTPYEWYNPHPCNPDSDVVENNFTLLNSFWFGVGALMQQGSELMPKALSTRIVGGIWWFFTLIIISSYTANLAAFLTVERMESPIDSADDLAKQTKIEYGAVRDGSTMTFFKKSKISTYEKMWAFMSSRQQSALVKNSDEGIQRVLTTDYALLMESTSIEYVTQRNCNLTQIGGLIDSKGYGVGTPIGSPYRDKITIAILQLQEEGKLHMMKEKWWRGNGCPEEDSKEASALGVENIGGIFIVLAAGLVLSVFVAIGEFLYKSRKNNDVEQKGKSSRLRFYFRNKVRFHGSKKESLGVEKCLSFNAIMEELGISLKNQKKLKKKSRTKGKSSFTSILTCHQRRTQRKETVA
recombinant rat homomeric GluK3, sequence (P42264 32-919): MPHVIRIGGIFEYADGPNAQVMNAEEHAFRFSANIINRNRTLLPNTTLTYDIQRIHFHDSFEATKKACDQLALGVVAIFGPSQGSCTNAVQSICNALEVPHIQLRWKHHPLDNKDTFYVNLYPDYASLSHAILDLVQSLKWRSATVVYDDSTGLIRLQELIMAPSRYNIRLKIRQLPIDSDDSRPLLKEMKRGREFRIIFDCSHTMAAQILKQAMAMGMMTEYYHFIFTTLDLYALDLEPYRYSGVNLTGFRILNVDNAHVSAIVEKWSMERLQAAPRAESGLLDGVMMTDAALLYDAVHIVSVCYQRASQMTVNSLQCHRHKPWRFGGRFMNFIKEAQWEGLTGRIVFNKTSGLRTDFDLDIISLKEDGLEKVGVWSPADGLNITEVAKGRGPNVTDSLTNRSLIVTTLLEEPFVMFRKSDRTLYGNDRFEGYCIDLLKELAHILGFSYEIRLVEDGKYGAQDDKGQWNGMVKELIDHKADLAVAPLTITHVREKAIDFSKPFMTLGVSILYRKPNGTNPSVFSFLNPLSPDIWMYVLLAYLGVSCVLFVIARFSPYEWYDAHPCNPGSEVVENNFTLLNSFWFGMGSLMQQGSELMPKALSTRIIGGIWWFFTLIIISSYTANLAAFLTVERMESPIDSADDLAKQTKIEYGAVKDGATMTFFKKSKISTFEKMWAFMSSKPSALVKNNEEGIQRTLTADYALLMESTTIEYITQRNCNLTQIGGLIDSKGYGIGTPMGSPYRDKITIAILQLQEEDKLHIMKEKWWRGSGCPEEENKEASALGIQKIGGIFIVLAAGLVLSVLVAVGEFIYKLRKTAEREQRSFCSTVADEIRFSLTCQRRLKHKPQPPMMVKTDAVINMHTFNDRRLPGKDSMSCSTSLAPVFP
human EAAT2, sequence (P43004 whole entry): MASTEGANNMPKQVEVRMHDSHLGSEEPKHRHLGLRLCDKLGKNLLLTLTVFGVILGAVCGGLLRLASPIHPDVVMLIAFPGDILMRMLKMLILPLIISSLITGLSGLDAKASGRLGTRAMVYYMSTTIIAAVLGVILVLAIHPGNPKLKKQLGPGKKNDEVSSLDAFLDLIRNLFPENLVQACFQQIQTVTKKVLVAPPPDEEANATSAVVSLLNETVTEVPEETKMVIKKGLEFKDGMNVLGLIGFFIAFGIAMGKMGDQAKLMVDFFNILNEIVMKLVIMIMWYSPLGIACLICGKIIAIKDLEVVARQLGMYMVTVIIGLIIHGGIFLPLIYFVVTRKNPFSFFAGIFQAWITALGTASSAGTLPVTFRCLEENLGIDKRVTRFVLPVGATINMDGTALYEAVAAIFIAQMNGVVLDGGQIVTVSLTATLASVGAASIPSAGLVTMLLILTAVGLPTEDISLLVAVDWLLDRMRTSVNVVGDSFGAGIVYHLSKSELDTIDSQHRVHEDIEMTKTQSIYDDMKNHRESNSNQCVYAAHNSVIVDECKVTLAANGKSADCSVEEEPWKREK
recombinant rat homomeric GluK2, sequence (P42260 32-908): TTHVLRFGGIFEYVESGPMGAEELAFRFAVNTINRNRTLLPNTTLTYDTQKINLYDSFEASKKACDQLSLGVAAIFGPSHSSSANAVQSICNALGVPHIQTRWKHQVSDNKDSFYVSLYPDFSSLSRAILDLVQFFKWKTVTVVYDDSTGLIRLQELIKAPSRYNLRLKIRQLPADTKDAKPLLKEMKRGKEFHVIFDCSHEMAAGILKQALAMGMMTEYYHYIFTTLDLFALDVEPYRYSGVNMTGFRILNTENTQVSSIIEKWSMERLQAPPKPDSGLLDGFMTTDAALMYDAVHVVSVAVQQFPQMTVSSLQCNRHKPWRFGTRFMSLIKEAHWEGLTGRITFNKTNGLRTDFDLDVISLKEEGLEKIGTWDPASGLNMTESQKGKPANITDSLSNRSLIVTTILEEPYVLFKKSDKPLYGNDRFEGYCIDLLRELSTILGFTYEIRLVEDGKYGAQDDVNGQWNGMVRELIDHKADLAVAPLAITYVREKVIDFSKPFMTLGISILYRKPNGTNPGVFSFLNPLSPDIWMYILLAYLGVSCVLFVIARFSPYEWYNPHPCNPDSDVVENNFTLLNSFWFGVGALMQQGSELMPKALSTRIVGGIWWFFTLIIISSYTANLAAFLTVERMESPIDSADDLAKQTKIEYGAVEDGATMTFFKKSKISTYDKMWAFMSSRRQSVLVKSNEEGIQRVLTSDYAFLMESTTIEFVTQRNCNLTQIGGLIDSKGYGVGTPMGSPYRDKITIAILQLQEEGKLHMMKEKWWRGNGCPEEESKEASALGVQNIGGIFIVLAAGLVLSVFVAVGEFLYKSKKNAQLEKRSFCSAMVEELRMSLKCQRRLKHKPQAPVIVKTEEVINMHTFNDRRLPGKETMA
human EAAT1, sequence (P43003 whole entry): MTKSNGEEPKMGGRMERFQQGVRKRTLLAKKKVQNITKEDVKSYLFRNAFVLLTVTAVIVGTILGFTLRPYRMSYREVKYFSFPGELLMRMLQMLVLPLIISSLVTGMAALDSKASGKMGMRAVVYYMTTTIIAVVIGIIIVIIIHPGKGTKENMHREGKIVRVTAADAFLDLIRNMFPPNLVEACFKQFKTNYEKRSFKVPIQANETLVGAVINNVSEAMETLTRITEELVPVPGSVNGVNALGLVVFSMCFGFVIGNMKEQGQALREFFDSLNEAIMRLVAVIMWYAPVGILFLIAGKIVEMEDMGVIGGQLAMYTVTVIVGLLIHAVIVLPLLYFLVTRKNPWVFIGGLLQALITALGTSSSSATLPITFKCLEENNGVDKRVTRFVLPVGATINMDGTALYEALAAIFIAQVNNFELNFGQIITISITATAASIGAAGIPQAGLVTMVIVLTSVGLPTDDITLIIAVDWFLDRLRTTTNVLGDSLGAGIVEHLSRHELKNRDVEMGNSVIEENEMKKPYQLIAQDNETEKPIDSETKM

Structure (SMILES)	IC50 KA (native KA receptors [1])	IC50 (human EAAT3)	Ki [2, 10]	GluK1/K3 (GluK1/GluK3 Ki selectivity ratio) [2]	IC50 (human EAAT1; IC50 EAAT1)	IC50 (human EAAT2)	Ki [3]	Ki ([4]; Ki GluK2)	pKi NMDA (mean ± SEM, in brackets) (native NMDA receptors [5])	other results
Cl.O=C(O)C(Cc1c[nH]nn1)[C@@H]1CCN[C@H]1C(=O)O (mixture of isomers) [3p, trans-3-(1-Carboxy-2-(1H-1,2,3-triazol-4-yl)ethyl)pyrrolidine-2-carboxylic Acid Hydrochloride]	59 µM	> 300 µM	3.1 ± 0.14 µM	5	> 300 µM	> 300 µM	14 ± 2 µM	55 ± 9 µM		pIC50 KA (mean ± SEM, in brackets) (native KA receptors [1]): 4.23 ± 0.03
CCCC(C(=O)O)[C@@H]1CCN[C@H]1C(=O)O.Cl (relative stereo) [3e, trans-3-(1-Carboxybutyl)pyrrolidine-2-carboxylic Acid Hydrochloride]	>100 µM									
CC(C)C(C(=O)O)[C@@H]1CCN[C@H]1C(=O)O.Cl (relative stereo) [3f, trans-3-(1-Carboxy-2-methylpropyl)pyrrolidine-2-carboxylic Acid Hydrochloride]	>100 µM	35.5 µM	> 100 µM		45 µM	15.8 µM	> 100 µM	> 100 µM		IC50 (human EAAT1; pIC50 EAAT1 (mean ± SEM, in brackets)): 45.7 µM
Cl.O=C(O)C(Cc1ccccc1)[C@@H]1CCN[C@H]1C(=O)O (relative stereo) [3g, trans-3-(1-Carboxy-2-phenylethyl)pyrrolidine-2-carboxylic Acid Hydrochloride]	71 µM		5.4 ± 0.42 µM	9		20 µM	46 ± 2.2 µM	67 ± 4.6 µM		pIC50 KA (mean ± SEM, in brackets) (native KA receptors [1]): 4.15 ± 0.04; IC50 (human EAAT1; [11]): 34 µM; selectivity for EAAT1 and EAAT2 over EAAT3 (human EAAT1; from IC50 values): 10 fold; IC50 (human EAAT1; pIC50 EAAT1 (mean ± SEM, in brackets), HEK293 cells, [3H]-D-Asp uptake): 34.7 µM
Cl.O=C(O)C(CCc1ccccc1)[C@@H]1CCN[C@H]1C(=O)O (relative stereo) [3h, trans-3-(1-Carboxy-3-phenylpropyl)pyrrolidine-2-carboxylic Acid Hydrochloride]	>100 µM	> 300 µM	86 ± 7.3 µM		> 300 µM	> 300 µM	> 100 µM	> 100 µM		
COC(C(=O)O)[C@@H]1CCN[C@H]1C(=O)O.Cl (relative stereo) [3j-d1, trans-3-(Carboxy(methoxy)methyl)pyrrolidine-2-carboxylic Acid Hydrochloride]	>100 µM	> 1000 µM				~300 µM	> 100 µM			Ki [2]: 82 ± 11.2 µM; IC50 (human EAAT1): > 1000 µM; Ki [4]: > 100 µM
Cl.Cl.NC(C(=O)O)[C@@H]1CCN[C@H]1C(=O)O (relative stereo) [3k, trans-3-(Amino(carboxy)methyl)pyrrolidine-2-carboxylic Acid Dihydrochloride]	>100 µM	> 300 µM		>3		> 300 µM	> 100 µM		5.06 ± 0.02	Ki [2]: 33 ± 2.4 µM; pIC50 AMPA (mean ± SEM, in brackets) (native AMPA receptors [6]): 4.51 ± 0.03; IC50 (human EAAT1): > 300 µM; Ki [4]: > 100 µM
Cl.O=C(O)CC(C(=O)O)[C@@H]1CCN[C@H]1C(=O)O (relative stereo) [3l, trans-2-(2-Carboxypyrrolidin-3-yl)succinic Acid Hydrochloride]	23 µM	> 1000 µM	6.4 ± 1.2 µM		> 1000 µM	> 1000 µM	2 ± 0.16 µM	33 ± 1.1 µM	5.58 ± 0.03	pIC50 KA (mean ± SEM, in brackets) (native KA receptors [1]): 4.63 ± 0.02
Cl.O=C(O)CCC(C(=O)O)[C@@H]1CCN[C@H]1C(=O)O (relative stereo) [3m, trans-2-(2-Carboxypyrrolidin-3-yl)pentanedioic Acid Hydrochloride]	>100 µM	> 300 µM	> 100 µM		> 300 µM	> 300 µM	> 100 µM	> 100 µM	4.28 ± 0.01	
O=C([O-])C(CCO)[C@@H]1CCN[C@H]1C(=O)[O-].[Na+].[Na+] (relative stereo) [3n, Disodium trans-3-(1-Carboxylato-3-hydroxypropyl)pyrrolidine-2-carboxylate]		> 300 µM	52 ± 3 µM	>2		> 300 µM	> 100 µM		4.23 ± 0.06	IC50 (human EAAT1; [11]): > 300 µM; Ki ([4]; Ki GluK2, cloned homomeric receptor, mean ± SEM, at least three experiments): > 100 µM
Cl.O=C(O)C(CCCO)[C@@H]1CCN[C@H]1C(=O)O (relative stereo) [3o, trans-3-(1-Carboxy-4-hydroxybutyl)pyrrolidine-2-carboxylic Acid Hydrochloride]	>100 µM	> 300 µM	> 100 µM		> 300 µM	> 300 µM	> 100 µM	> 100 µM		
Cl.O=C(O)C[C@H]1CCN[C@@H]1C(=O)O [3a, (2S,3R)-3-(Carboxymethyl)pyrrolidine-2-carboxylic Acid Hydrochloride]				6						IC50 (native AMPA receptors [7]; native receptors, ref [67]): 106 µM; IC50 (human EAAT3; read-out: IC50 EAAT3, HEK293 cells, [3H]-D-Asp uptake): > 300 µM; Ki (native NMDA receptors [8]; native receptors, ref [67]): 0.5 µM; IC50 KA (native KA receptors [9]; native receptors, ref [67]): 1.6 µM; IC50 (human EAAT1; read-out: IC50 EAAT1, HEK293 cells, [3H]-D-Asp uptake): > 300 µM; IC50 (human EAAT2; read-out: IC50 EAAT2, HEK293 cells, [3H]-D-Asp uptake): > 300 µM
CC[C@H](C(=O)O)[C@H]1CCN[C@@H]1C(=O)O.Cl [3c-s1, (2S,3R)-3-((S)-1-Carboxypropyl)pyrrolidine-2-carboxylic Acid Hydrochloride]	>100 µM	~50 µM		2		~30 µM	18 ± 3.8 µM		4.88 ± 0.02	Ki [2]: 11 ± 2.4 µM; IC50 (human EAAT1): ~100 µM; Ki [4]: > 100 µM
CC[C@@H](C(=O)O)[C@H]1CCN[C@@H]1C(=O)O.Cl [3c-s2, (2S,3R)-3-((R)-1-Carboxypropyl)pyrrolidine-2-carboxylic Acid Hydrochloride]	>100 µM	> 300 µM		7		> 300 µM	41 ± 14 µM			Ki [2]: 6.3 ± 1.3 µM; IC50 (human EAAT1): > 300 µM; Ki [4]: 70 ± 14 µM
Cl.O=C(O)[C@H]1NCC[C@@H]1[C@@H](C(=O)O)c1ccccc1 [3d-s1, (2S,3R)-3-((R)-Carboxy(phenyl)methyl)pyrrolidine-2-carboxylic Acid Hydrochloride]	>100 µM	> 300 µM			> 300 µM	~50 µM	> 100 µM	> 100 µM		Ki ([2]; Ki GluK3): > 100 µM
Cl.O=C(O)[C@H]1NCC[C@@H]1[C@H](C(=O)O)c1ccccc1 [3d-s2, (2S,3R)-3-((S)-Carboxy(phenyl)methyl)pyrrolidine-2-carboxylic Acid Hydrochloride]	>100 µM	> 300 µM			> 300 µM	> 300 µM	> 100 µM	> 100 µM		Ki ([2]; Ki GluK3): > 100 µM
Cl.O=C(O)C(Cc1c[nH]nn1)[C@@H]1CCN[C@H]1C(=O)O (stereo partly drawn) [3p-d1, trans-3-(1-Carboxy-2-(1H-1,2,3-triazol-4-yl)ethyl)pyrrolidine-2-carboxylic Acid Hydrochloride]	>100 µM	> 300 µM	6.6 ± 0.09 µM		> 300 µM	> 300 µM	~100 µM	> 100 µM		
Cl.O=C(O)C(Cc1c[nH]nn1)[C@@H]1CCN[C@H]1C(=O)O (stereo partly drawn) [3p-d2, trans-3-(1-Carboxy-2-(1H-1,2,3-triazol-4-yl)ethyl)pyrrolidine-2-carboxylic Acid Hydrochloride]	58 µM		2.7 ± 0.32 µM					43 ± 5.2 µM	4.30 ± 0.03	pIC50 KA (mean ± SEM, in brackets) (native KA receptors [1]): 4.24 ± 0.01
Cc1onc(O)c1CC(N)C(=O)O (stereo not drawn) [AMPA, α-amino-3-hydroxy-5-methyl-4-isoxazolepropionic acid, reference compound]										GluK1/GluK3 [2]: 0.03; GluK2/GluK3 [2]: >23
CN[C@H](CC(=O)O)C(=O)O [NMDA, N-methyl-D-aspartate, reference compound]										IC50 (native AMPA receptors [7]): > 100 µM; Ki (native NMDA receptors [8]): 35 µM; IC50 KA (native KA receptors [9]): >100 µM
